Source: patent US12601000B2, “Method for the hydroxylation of steroids” (ANNIKKI GMBH, priority 2020, dated 2026)
≈ marks a conversion by molar mass, not a printed value. Like-named read-outs stand apart in the source and are kept apart here. Values belong to the compound of their own block, whether it stands above or below them.

Tests used:
[1] = Solubility limits of LCA and UDCA in organic solvents; assay type: physicochemical; conditions: organic solvent, organic solvent or mixture, thermodynamic from solid, read-out: solubility limit
Protocol: The organic solvent was added in increments of 100 μL, and the mixture was treated by shaking in a vortex shaker and optionally in an ultrasonic bath. It was visually assessed as to whether a clear solution was present.

[2] = test system: Streptomyces hygroscopicus subsp. hygroscopicus (DSM-40578); experiment: Test of bacterial strains for 7-hydroxylation of deoxycholic acid; assay type: cell-based; conditions: deoxycholic acid 0.5 mM, cultured up to 72 h, HPLC and GC/MS
Excerpt: (§1) The following bacterial strains were obtained from the German Strain Collection of Microorganisms and Cell Cultures (DSMZ [Deutsche Stammsammlung für Mikroorganismen und Zellkulturen]): Saccharothrix longispora (DSM-43749), Catellatospora citrae (DSM-44097), Streptomyces hygroscopicus subsp. hygroscopicus (DSM-40578) and Asanoa ferruginea (DSM-44099). The strains were cultivated under standard conditions as recommended by DSMZ. […] After a centrifugation step, supernatants of the cultures were extracted with ethyl acetate and analyzed by HPLC and GC/MS.

[3] = test system: Saccharothrix longispora (DSM-43749); experiment: as above; assay type: cell-based; conditions: deoxycholic acid 0.5 mM, cultured up to 72 h, HPLC and GC/MS
Excerpt: as §1

[4] = test system: Asanoa ferruginea (DSM-44099); experiment: as above; assay type: cell-based; conditions: deoxycholic acid 0.5 mM, cultured up to 72 h, HPLC and GC/MS
Excerpt: as §1

[5] = test system: Catellatospora citrae (DSM-44097); experiment: as above; assay type: cell-based; conditions: deoxycholic acid 0.5 mM, cultured up to 72 h, HPLC and GC/MS
Excerpt: as §1

solubility ([1]; 2-butanol): 53 mg/mL (≈ 135 mM)
solubility ([1]; 2-butanone): 10 mg/mL (≈ 25.5 mM)
solubility ([1]; CH2Cl2): 1.1 mg/mL (≈ 2.8 mM)
solubility ([1]; CHCl3/phenol): 21.3 mg/mL (≈ 54.3 mM)
solubility ([1]; CHCl3): 2.9 mg/mL (≈ 7.39 mM)
solubility ([1]; DMA): > 500 mg/mL
solubility ([1]; DMF): > 500 mg/mL
solubility ([1]; DMSO): > 500 mg/mL
solubility ([1]; Et2O): 2 mg/mL (≈ 5.09 mM)
solubility ([1]; Me—THF): 63.4 mg/mL (≈ 161 mM)
solubility ([1]; THF): 259 mg/mL (≈ 660 mM)
solubility ([1]; acetone): 8.8 mg/mL (≈ 22.4 mM)
solubility ([1]; cyclohexane): < 0.7 mg/mL
solubility ([1]; dioxane): 92.6 mg/mL (≈ 236 mM)
solubility ([1]; ethanol): 54.5 mg/mL (≈ 139 mM)
solubility ([1]; ethyl acetate (EtOAc)): 2.9 mg/mL (≈ 7.39 mM)
solubility ([1]; ethylene glycol): 16.6 mg/mL (≈ 42.3 mM)
solubility ([1]; hexane/EtOAc + 0.01% trifluoroacetic acid (TFA)): < 0.8 mg/mL
solubility ([1]; hexane/IPA 7:3 + 0.02% TFA): 12 mg/mL
solubility ([1]; hexane/IPA 8:2 + 0.01% TFA): 4 mg/mL
solubility ([1]; i Pr2O): < 0.5 mg/mL
solubility ([1]; isopropanol (IPA)): 47.5 mg/mL (≈ 121 mM)
solubility ([1]; methanol): > 100 mg/mL
solubility ([1]; methyl isobutyl alcohol (MIBA)): 35.7 mg/mL (≈ 90.9 mM)
solubility ([1]; methyl isobutyl ketone (MIBK)): 4.4 mg/mL (≈ 11.2 mM)
solubility ([1]; toluene): < 1 mg/mL
Compound: C[C@H](CCC(=O)O)[C@H]1CC[C@H]2[C@@H]3[C@@H](O)C[C@@H]4C[C@H](O)CC[C@]4(C)[C@H]3CC[C@]12C [UDCA, ursodeoxycholic acid]

Compound: C[C@H](CCC(=O)O)[C@H]1CC[C@H]2[C@@H]3CC[C@@H]4C[C@H](O)CC[C@]4(C)[C@H]3C[C@H](O)[C@]12C [deoxycholic acid, 3α,12α-dihydroxy-5β-cholanic acid]
7-hydroxylated product of deoxycholic acid in culture supernatant [2]: a peak was noted the retention time of which corresponds to that of ursocholic acid
7-hydroxylated product of deoxycholic acid in culture supernatant [3]: no indication of 7-hydroxylated products
7-hydroxylated product of deoxycholic acid in culture supernatant [4]: no indication of 7-hydroxylated products
7-hydroxylated product of deoxycholic acid in culture supernatant [5]: no indication of 7-hydroxylated products
